Experimental data published in ChEMBL document CHEMBL1201862, “PubChem BioAssay data set” (2004).
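How tested: cells in 96-well plates exposed to compound for 48 hours at five concentrations. GI50 = concentration required for 50% inhibition of growth.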 Active and inactive are the calls of the source. Rule as the data show it: active = GI50 up to about 1.1 µM and inactive = higher.

Tests used:
Assay in all cases: DTP human tumour cell line panel, 48 h
[1] = tested on: EKVX
[2] = tested on: HT-29
[3] = tested on: NCI-H226
[4] = tested on: HOP-92
[5] = tested on: HL-60
[6] = tested on: HCT-116
[7] = tested on: CCRF-CEM
[8] = tested on: XF498
[9] = tested on: A549
[10] = tested on: OVCAR-3
[11] = tested on: NCI-H23
[12] = tested on: SNB-78
[13] = tested on: SF-295
[14] = tested on: SNB-19
[15] = tested on: OVCAR-4
[16] = tested on: M14
[17] = tested on: ACHN
[18] = tested on: COLO 205
[19] = tested on: K562
[20] = tested on: SNB-75
[21] = tested on: SF-268
[22] = tested on: MOLT-4
[23] = tested on: U-251
[24] = tested on: HOP-18
[25] = tested on: LXFL 529
[26] = tested on: SN12C
[27] = tested on: DMS-114
[28] = tested on: OVCAR-8
[29] = tested on: UACC-257
[30] = tested on: SK-OV-3
[31] = tested on: SK-MEL-28
[32] = tested on: 786-0
[33] = tested on: RPMI-8226
[34] = tested on: DMS-273
[35] = tested on: Malme-3M
[36] = tested on: UO-31
[37] = tested on: LOX IMVI
[38] = tested on: HCT-15
[39] = tested on: TK-10
[40] = tested on: KM12
[41] = tested on: SF-539
[42] = tested on: CAKI-1
[43] = tested on: M19-MEL
[44] = tested on: SW-620
[45] = tested on: SK-MEL-5
[46] = tested on: A498
[47] = tested on: IGROV-1
[48] = tested on: OVCAR-5
[49] = tested on: HOP-62
[50] = tested on: NCI-H522
[51] = tested on: UACC-62
[52] = tested on: NCI-H460
[53] = tested on: HCC 2998
[54] = tested on: RXF 393
[55] = tested on: KM-20L2
[56] = tested on: SK-MEL-2

## c1ccc(-c2nc3ccccc3nc2SCc2cccnc2)cc1
[1]
  GI50: > 100 µM (inactive)
[2]
  GI50: > 100 µM (inactive)
[3]
  GI50: > 100 µM (inactive)
[4]
  GI50: > 100 µM (inactive)
[5]
  GI50: > 100 µM (inactive)
[6]
  GI50: > 100 µM (inactive)
[7]
  GI50: > 100 µM (inactive)
[8]
  GI50: > 100 µM (inactive)
[9]
  GI50: > 100 µM (inactive)
[10]
  GI50: > 100 µM (inactive)
[11]
  GI50: > 100 µM (inactive)
[12]
  GI50: > 100 µM (inactive)
[13]
  GI50: > 100 µM (inactive)
[14]
  GI50: > 100 µM (inactive)
[15]
  GI50: > 100 µM (inactive)
[16]
  GI50: > 100 µM (inactive)
[17]
  GI50: > 100 µM (inactive)
[18]
  GI50: > 100 µM (inactive)
[19]
  GI50: > 100 µM (inactive)
[20]
  GI50: > 100 µM (inactive)
[21]
  GI50: > 100 µM (inactive)
[22]
  GI50: > 100 µM (inactive)
[23]
  GI50: > 100 µM (inactive)
[24]
  GI50: 14.4 µM (inactive)
[25]
  GI50: > 100 µM (inactive)
[26]
  GI50: > 100 µM (inactive)
[27]
  GI50: > 100 µM (inactive)
[28]
  GI50: > 100 µM (inactive)
[29]
  GI50: > 100 µM (inactive)
[30]
  GI50: > 100 µM (inactive)
[31]
  GI50: > 100 µM (inactive)
[32]
  GI50: > 100 µM (inactive)
[33]
  GI50: > 100 µM (inactive)
[34]
  GI50: > 100 µM (inactive)
[35]
  GI50: > 100 µM (inactive)
[36]
  GI50: 56.6 µM (inactive)

## NC(=O)c1ccccc1NC(=O)C(=O)C(C(=O)c1ccc2ccccc2c1)C1OC(=O)c2ccccc21 (centres undefined)
[1]
  GI50: 26.5 µM (inactive)
[37]
  GI50: 11.3 µM (inactive)
[2]
  GI50: 27.8 µM (inactive)
[3]
  GI50: 2.85 µM (inactive)
[4]
  GI50: 6.79 µM (inactive)
[6]
  GI50: 9.71 µM (inactive)
[38]
  GI50: 16.7 µM
[7]
  GI50: 10.3 µM (inactive)
[39]
  GI50: 22.6 µM (inactive)
[8]
  GI50: 2.59 µM (inactive)
[40]
  GI50: 18.9 µM (inactive)
[41]
  GI50: 4.6 µM (inactive)
[9]
  GI50: 16.3 µM (inactive)
[42]
  GI50: 7.67 µM (inactive)
[43]
  GI50: 11.1 µM (inactive)
[44]
  GI50: 8.24 µM (inactive)
[10]
  GI50: 11.7 µM (inactive)
[11]
  GI50: 9.66 µM (inactive)
[12]
  GI50: 10.5 µM (inactive)
[14]
  GI50: 4.04 µM (inactive)
[45]
  GI50: 12 µM (inactive)
[15]
  GI50: 11.6 µM (inactive)
[16]
  GI50: 14.3 µM (inactive)
[46]
  GI50: > 100 µM (inactive)
[17]
  GI50: > 100 µM (inactive)
[47]
  GI50: 14.8 µM (inactive)
[48]
  GI50: 24 µM (inactive)
[18]
  GI50: 11.7 µM (inactive)
[19]
  GI50: 16.5 µM (inactive)
[20]
  GI50: 8.15 µM (inactive)
[49]
  GI50: 10.2 µM (inactive)
[21]
  GI50: 4.48 µM (inactive)
[22]
  GI50: 3.49 µM (inactive)
[23]
  GI50: 4.86 µM (inactive)
[24]
  GI50: 1.34 µM (inactive)
[50]
  GI50: 14 µM (inactive)
[25]
  GI50: 8.17 µM (inactive)
[26]
  GI50: 15.9 µM (inactive)
[28]
  GI50: 7.66 µM (inactive)
[51]
  GI50: 10.4 µM (inactive)
[52]
  GI50: > 100 µM (inactive)
[53]
  GI50: 7.1 µM (inactive)
[29]
  GI50: 13.3 µM (inactive)
[54]
  GI50: 2.09 µM (inactive)
[30]
  GI50: 14.6 µM (inactive)
[31]
  GI50: 7.23 µM (inactive)
[32]
  GI50: 6.25 µM (inactive)
[55]
  GI50: 28.3 µM (inactive)
[56]
  GI50: 14.8 µM (inactive)
[33]
  GI50: 8.91 µM (inactive)
[34]
  GI50: 12.5 µM (inactive)
[35]
  GI50: 10.4 µM (inactive)
[36]
  GI50: 13.2 µM (inactive)
